According to US5583227A, “Antiulcer compounds having a substituted alkynyl or quinoxaline nucleus and methods of making thereof” (Mochida Pharmaceutical Co. Ltd., priority 1994, dated 1996):
Blank lines part the entries; values can stand above or below the compound they belong to.

Key:
[1] = target: T1, H^+,K^+ adenosine triphosphatase (Sus scrofa, UniProt P19156); assay: H+,K+ adenosine triphosphatase inhibition (proton pump inhibition); format: biochemical, hog; conditions: H+,K+ ATPase fraction from hog stomach microsomes, ATP substrate, released inorganic phosphorus; read-out: Enzyme inhibition IC50 value (converted)
T1 construct: hog stomach was homogenized and subjected to ultracentrifugation to obtain a microsome fraction; from tissue; host or cells: hog stomach, microsome fraction (discontinuous Ficoll gradient)
T1 sequence (P19156 2-1034 limits assumed): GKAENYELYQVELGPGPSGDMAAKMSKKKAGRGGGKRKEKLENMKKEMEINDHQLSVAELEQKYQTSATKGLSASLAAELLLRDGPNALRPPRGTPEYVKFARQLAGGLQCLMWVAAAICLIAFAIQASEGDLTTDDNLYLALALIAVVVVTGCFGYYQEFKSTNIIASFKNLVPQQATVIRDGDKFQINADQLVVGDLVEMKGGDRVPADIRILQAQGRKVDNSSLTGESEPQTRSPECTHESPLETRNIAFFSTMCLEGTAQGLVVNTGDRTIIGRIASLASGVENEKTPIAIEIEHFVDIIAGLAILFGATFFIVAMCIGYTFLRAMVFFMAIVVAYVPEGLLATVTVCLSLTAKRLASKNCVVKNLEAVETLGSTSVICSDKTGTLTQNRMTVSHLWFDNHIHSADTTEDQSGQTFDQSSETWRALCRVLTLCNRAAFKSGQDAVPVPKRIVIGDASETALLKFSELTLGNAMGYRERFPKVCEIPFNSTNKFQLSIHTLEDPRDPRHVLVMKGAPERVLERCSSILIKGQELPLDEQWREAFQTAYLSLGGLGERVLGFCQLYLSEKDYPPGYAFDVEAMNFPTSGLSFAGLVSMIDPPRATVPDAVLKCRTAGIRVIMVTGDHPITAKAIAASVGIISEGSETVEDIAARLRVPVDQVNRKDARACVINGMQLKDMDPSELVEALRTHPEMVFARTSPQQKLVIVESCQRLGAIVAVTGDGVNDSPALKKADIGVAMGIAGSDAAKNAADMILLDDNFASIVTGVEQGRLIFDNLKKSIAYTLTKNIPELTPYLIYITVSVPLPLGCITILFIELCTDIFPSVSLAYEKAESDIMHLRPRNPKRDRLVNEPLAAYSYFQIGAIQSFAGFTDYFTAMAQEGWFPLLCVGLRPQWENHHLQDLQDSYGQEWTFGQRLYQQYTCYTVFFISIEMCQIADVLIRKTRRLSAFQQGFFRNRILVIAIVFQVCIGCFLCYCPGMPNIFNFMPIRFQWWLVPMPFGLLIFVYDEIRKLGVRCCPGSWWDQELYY
T1 sequence (P18434 whole entry partner): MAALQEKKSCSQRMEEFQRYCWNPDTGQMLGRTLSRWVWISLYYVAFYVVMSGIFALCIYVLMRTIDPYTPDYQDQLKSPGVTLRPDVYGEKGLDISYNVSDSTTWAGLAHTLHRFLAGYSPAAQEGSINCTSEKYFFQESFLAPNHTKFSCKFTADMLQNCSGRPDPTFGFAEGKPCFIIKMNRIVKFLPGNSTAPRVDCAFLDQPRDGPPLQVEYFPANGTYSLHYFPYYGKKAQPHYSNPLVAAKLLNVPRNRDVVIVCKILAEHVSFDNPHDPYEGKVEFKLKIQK
Method: Proton pump inhibition was evaluated by the H^+,K^+ adenosine triphosphatase (to be referred to as "H^+,K^+ ATPase" hereinafter)inhibition.
That is, hog stomach was homogenized and subjected to ultracentrifugation to obtain a microsome fraction, and the microsomes were subjected to discontinuous density gradient ultracentrifugation using 0 and 9% Ficoll solutions to obtain a fraction containing H^+,K^+ ATPase. The H^+,K^+ ATPase activity was determined by measuring the released inorganic phosphorus using ATP as the substrate and an inorganic phosphorus measuring reagent PiSET(IATRON) manufactured by IATRON.

Stress ulcer = assay: Stress ulcer; format: in vivo, Wistar male rats; conditions: Rattus norvegicus; oral, 7 hours stress loading in water bath at 23° C.; read-out: Antiulcer activity, Stress ulcer, ED50 value
Method: (Test Example 3) Stress ulcer
Basically according to the method of Takagi et al. (Japanese Journal of Pharmacology (to be referred to as "Japan. J. Pharmacol." hereinafter), vol.18, pp.9-18, each of the compounds shown in Examples was orally administered to Wistar male rats which have been subjected to fasting of 24 hours (free drinking). Each rat was transferred into a stress cage 30 minutes thereafter and subjected to stress loading by suspending the cage in a water bath controlled at 23° C. to such a depth that the rat was soaked up to its breast.
After 7 hours of the stress loading, the rat was recovered from the water bath to excise the stomach. The length (mm) of each ulcer developed in the stomach was measured under a stereoscopic microscope, and the total length of ulcers per one animal was used as an ulcer index. The dose of each test compound required to inhibit 50% of the ulcer index of the control group was calculated (ED50). The results are shown in Table 3, together with the results of the following pylorus ligation ulcer test.

Pylorus ligation ulcer = assay: Pylorus ligation ulcer; format: in vivo, Wistar male rats; conditions: Rattus norvegicus; oral, 14 hours after pylorus ligation; read-out: Antiulcer activity, Pylorus ligation ulcer, ED50 value
Method: (Test Example 4) Pylorus ligation ulcer
Basically according to the method of Shay et al. (Gastroenterology, vol.5, pp.43-61, 1945), each of the compounds shown in Examples was orally administered to Wistar male rats which have been subjected to fasting of 48 hours (free drinking). After 30 minutes of the compound administration,the pylorus of each rat was ligated.
After 14 hours of standing, the stomach was excised. The length and width of each ulcer developed in the fore-stomach part were measured under a stereoscopic microscope to calculate the ulcer area (length×width). In accordance with the method of Takagi et al. (Japan. J. Pharmacol., vol.24, pp.357-361, 1974), ulcer index was calculated based on the total ulcer area per animal. The dose of each test compound required to inhibit 50% of the ulcer index of the control group was calculated (ED50).

[2] = tested on: ulcer induced by 0.15N hydrochloric acid and 60% ethanol; assay: Cell protection effect (hydrochloric acid/ethanol-induced ulcer); format: in vivo, Wistar male rats; conditions: Rattus norvegicus, 1 h; oral, 30 minutes before 0.15N HCl / 60% ethanol 5 ml/kg
Method: (Test Example 5) Cell protection effect
Basically according to the method of Mizui and Doteuchi (Japan. J. Pharmacol., vol.33, pp.939-945, 1983), each of the compounds shown in Examples was orally administered to Wistar male rats which have been subjected to fasting of 24 hours (free drinking). After 30 minutes of the compound administration, a mixture solution of 0.15N hydrochloric acid and 60% ethanol was orally administered at a dose of 5 ml/kg. After 1 hour of standing, the stomach was excised. The length (mm) of each ulcer developed in the stomach was measured under a stereoscopic microscope to calculate the total length of ulcers per animal as an ulcer index. The dose of each test compound required to inhibit 50% of the ulcer index of the control group was calculated (ED50).

Acute toxicity test = conditions: mouse, in vivo; oral, mice, one week observation
Excerpt: (Test Example 6) Acute toxicity test
Each of the compounds shown in Examples was orally administered to three ICR male mice per group.

gastric acid secretion = assay: Gastric acid secretion inhibition activity (pylorus-ligated, histamine-stimulated rats); format: in vivo, Sprague-Dawley (SD) male rats; conditions: Rattus norvegicus; 30 mg/kg oral; pylorus ligated 3 hours later; histamine hydrochloride 30 mg/kg s.c.; total acidity over 3 hours; read-out: Acid secretion inhibition rate (%)
Method: (Test Example 2) Gastric acid secretion inhibition activity
Basically according to the method of Satoh et (Journal of Pharmacology and Experimental Therapeutics, vol.248, pp.806-815, 1988), each of the compounds shown in Examples was orally administered at a dose of 30 mg/kg to Sprague-Dawley (SD) male rats which have been subjected to fasting of 24 hours (free drinking).
After 3 hours of the compound administration, the pylorus of each rat was ligated under urethane anesthesia, and 30 mg of histamine hydrochloride per Kg was administered to the rat by subcutaneous injection. After 3 hours of the ligation, the gastric juice was collected to measure its volume and calculate total acidity (mEqH^+ /3 hours) by sodium hydroxide titration. The inhibition rate (%) was calculated by the following formula in which A represents the total gastric juice acidity of control group rat and B represents the total gastric juice acidity of test compound-administered group rat. [formula]

SMILES: COCC#Cc1nc(C#N)c(C#N)nc1C#CCOC [Example 7, 5,6-bis(3-methoxy-1-propynyl)-2,3-dicyanopyrazine]
IC50 [1]: 1.88 µM
ED50 (Stress ulcer): 5.6 mg/kg
ED50 (Pylorus ligation ulcer): 1.2 mg/kg
ED50 [2]: 1.2 mg/kg
LD50 at 168 h (Acute toxicity test): > 1000 mg/kg

IC50 [1]: 96.2 µM
SMILES: CCOC(C)C#Cc1nc2ccccc2nc1C#CC(C)OCC (stereo not shown) [Example 10, 2,3-bis(3-ethoxy-1-butynyl)quinoxaline]
inhibition in vivo at 30 mg/kg (gastric acid secretion): 38%
ED50 (Stress ulcer): 15 mg/kg
ED50 (Pylorus ligation ulcer): 11 mg/kg
ED50 [2]: 1.9 mg/kg

SMILES: CCC(C#Cc1nc2ccccc2nc1C#CC(CC)OC)OC (stereo not shown) [Example 11, 2,3-bis(3-methoxy-1-pentynyl)quinoxaline]
IC50 [1]: 30.4 µM
inhibition in vivo at 30 mg/kg (gastric acid secretion): 27%
ED50 (Pylorus ligation ulcer): 35 mg/kg
ED50 [2]: 41 mg/kg
LD50 at 168 h (Acute toxicity test): > 1000 mg/kg

SMILES: COCCOC(C)(C)C#Cc1nc2ccccc2nc1C#CC(C)(C)OCCOC [Example 43, 2,3-bis(3-(2-methoxyethoxy)-3-methyl-1-butynyl)quinoxaline]
ED50 [2]: 13 mg/kg
LD50 at 168 h (Acute toxicity test): > 1000 mg/kg

SMILES: CCOCCOC(C)(C)C#Cc1nc2ccccc2nc1C#CC(C)(C)OCCOCC [Example 44, 2,3-bis(3-(2-ethoxyethoxy)-3-methyl-1-butynyl)quinoxaline]
IC50 [1]: 88.9 µM
ED50 (Stress ulcer): 59 mg/kg
ED50 [2]: 13 mg/kg
LD50 at 168 h (Acute toxicity test): > 1000 mg/kg

SMILES: COC(C)(C)C#Cc1nc2ccccc2nc1C#CC(C)(C)OC [Example 114]
IC50 [1]: 93 µM
inhibition in vivo at 30 mg/kg (gastric acid secretion): 30%
ED50 [2]: 22 mg/kg
LD50 at 168 h (Acute toxicity test): > 1000 mg/kg

SMILES: CCC(C#Cc1nc2ccccc2nc1C#CC(CC)OCCOC)OCCOC (stereo not shown) [Example 116]
IC50 [1]: 188 µM
inhibition in vivo at 30 mg/kg (gastric acid secretion): 32%
ED50 (Stress ulcer): 39 mg/kg
ED50 [2]: 2.7 mg/kg
LD50 at 168 h (Acute toxicity test): > 1000 mg/kg

SMILES: CCOCCOC(C#Cc1nc2ccccc2nc1C#CC(CC)OCCOCC)CC (stereo not shown) [Example 117]
IC50 [1]: 123 µM
inhibition in vivo at 30 mg/kg (gastric acid secretion): 35%
ED50 (Stress ulcer): 6.1 mg/kg
ED50 (Pylorus ligation ulcer): 28 mg/kg
ED50 [2]: 8 mg/kg
LD50 at 168 h (Acute toxicity test): > 1000 mg/kg

IC50 [1]: 11.1 µM
SMILES: CCC(C#Cc1nc2ccccc2nc1C#CC(CC)OCCOC(C)C)OCCOC(C)C (stereo not shown) [Example 119]
ED50 [2]: 22 mg/kg

IC50 [1]: 10.7 µM
SMILES: CCC(C#Cc1nc2ccc(C=O)cc2nc1C#CC(CC)OCCOC)OCCOC (stereo not shown) [Example 138]
ED50 [2]: 9.8 mg/kg
